According to ChEMBL document CHEMBL1132301, “Carbonic anhydrase inhibitors. Synthesis of water-soluble, topically effective, intraocular pressure-lowering aromatic/heterocyclic sulfonamides containing cationic or anionic moieties: is the tail more important than the ring?” (J Med Chem, 1999):
Blank lines part the entries; values can stand above or below the molecule they belong to.

Legend:
Oryctolagus cuniculus [1] = assay: In vivo fall of IOP of normotensive rabbits after treatment with 1 drop(50 microL) of […]% solution of CA inhibitor with pH value 8.5 into the eye at 60 min; assay type: functional
Oryctolagus cuniculus [2] = species on record: Oryctolagus cuniculus; assay type: functional, Eye
Description: In vivo fall of IOP of Glaucomatous rabbits after treatment with 1 drop(50 microL) of 2% solution of CA inhibitor with pH value 5.5 into the eye at 90 min.

Oryctolagus cuniculus [3] = species on record: Oryctolagus cuniculus; assay type: functional, Eye; remark: listed apart in the source
Description: In vivo fall of IOP of normotensive rabbits after treatment with 1 drop(50 microL) of 2% solution of CA inhibitor with pH value 5.5 into the eye at 90 min.

Oryctolagus cuniculus [4] = species on record: Oryctolagus cuniculus; assay type: functional, Eye; remark: listed apart in the source
Description: In vivo fall of IOP of normotensive rabbits after treatment with 1 drop(50 microL) of 2% solution of CA inhibitor with pH value 5.5 into the eye at 30 min

Oryctolagus cuniculus [5] = species on record: Oryctolagus cuniculus; assay type: functional, Eye; remark: listed apart in the source
Description: In vivo fall of IOP of Glaucomatous rabbits after treatment with 1 drop(50 microL) of 2% solution of CA inhibitor with pH value 5.5 into the eye at 0 min

Oryctolagus cuniculus [6] = species on record: Oryctolagus cuniculus; assay type: functional, Eye; remark: listed apart in the source
Description: In vivo fall of IOP of Glaucomatous rabbits after treatment with 1 drop(50 microL) of 2% solution of CA inhibitor with pH value 5.5 into the eye at 30 min

Oryctolagus cuniculus [7] = species on record: Oryctolagus cuniculus; assay type: functional, Eye; remark: listed apart in the source
Description: In vivo fall of IOP of Glaucomatous rabbits after treatment with 1 drop(50 microL) of 2% solution of CA inhibitor with pH value 5.5 into the eye at 60 min

Oryctolagus cuniculus [8] = species on record: Oryctolagus cuniculus; assay type: functional, Eye; remark: listed apart in the source
Description: In vivo fall of IOP of normotensive rabbits after treatment with 1 drop(50 microL) of 2% solution of CA inhibitor with pH value 5.5 into the eye at 60 min

Oryctolagus cuniculus [9] = species on record: Oryctolagus cuniculus; assay type: functional, Eye; remark: listed apart in the source
Description: In vivo fall of IOP of normotensive rabbits after treatment with 1 drop(50 microL) of 2% solution of CA inhibitor with pH value 5.9 into the eye at 0 min

Oryctolagus cuniculus [10] = species on record: Oryctolagus cuniculus; assay type: functional, Eye; remark: listed apart in the source
Description: In vivo fall of IOP of normotensive rabbits after treatment with 1 drop(50 microL) of 2% solution of CA inhibitor with pH value 5.9 into the eye at 90 min.

Oryctolagus cuniculus [11] = species on record: Oryctolagus cuniculus; assay type: functional, Eye; remark: listed apart in the source
Description: In vivo fall of IOP of normotensive rabbits after treatment with 1 drop(50 microL) of 2% solution of CA inhibitor with pH value 5.9 into the eye at 60 min

Oryctolagus cuniculus [12] = species on record: Oryctolagus cuniculus; assay type: functional, Eye; remark: listed apart in the source
Description: In vivo fall of IOP of normotensive rabbits after treatment with 1 drop(50 microL) of 2% solution of CA inhibitor with pH value 5.9 into the eye at 30 min

Carbonic anhydrase 2 = Carbonic anhydrase 2 (Homo sapiens, UniProt P00918)
Description: Inhibitory activity against human recombinant carbonic anhydrase II

Carbonic anhydrase 1 = Carbonic anhydrase 1 (Homo sapiens, UniProt P00915)
Chain of Carbonic anhydrase 1 (P00915 whole entry): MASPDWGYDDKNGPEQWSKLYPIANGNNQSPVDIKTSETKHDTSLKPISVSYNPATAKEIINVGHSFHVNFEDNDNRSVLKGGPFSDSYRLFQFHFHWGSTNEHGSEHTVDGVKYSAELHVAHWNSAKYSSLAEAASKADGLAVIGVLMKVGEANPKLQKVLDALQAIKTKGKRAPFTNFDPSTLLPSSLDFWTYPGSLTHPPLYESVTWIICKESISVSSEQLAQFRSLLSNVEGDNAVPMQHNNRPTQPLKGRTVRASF
Description: Inhibitory activity against human cloned carbonic anhydrase isozyme I (hCA I, cytosolic form).

Oryctolagus cuniculus [13] = species on record: Oryctolagus cuniculus
Description: Compound was tested in vitro for corneal permeability of compound across the Denuded epithelial cornea obtained from rabbit

[14] = Compound was tested for solubility in pH buffer, at 25 degree C.(As sodium hydroxylate salts); assay type: ADME
Carbonic anhydrase 4 = biological target: T1, Carbonic anhydrase 4 (Bos taurus, UniProt Q95323)
T1 sequence (Q95323 whole entry): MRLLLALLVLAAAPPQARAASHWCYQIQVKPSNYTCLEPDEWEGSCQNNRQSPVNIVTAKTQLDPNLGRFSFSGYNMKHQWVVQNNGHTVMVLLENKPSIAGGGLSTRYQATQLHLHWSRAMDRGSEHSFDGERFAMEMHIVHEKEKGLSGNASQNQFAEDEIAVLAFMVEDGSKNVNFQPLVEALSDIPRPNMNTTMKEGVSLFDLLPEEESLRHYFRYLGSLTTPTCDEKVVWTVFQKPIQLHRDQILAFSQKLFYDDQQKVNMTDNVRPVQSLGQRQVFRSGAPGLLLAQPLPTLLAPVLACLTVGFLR
Description: Inhibitory activity against bovine lung microsomes carbonic anhydrase isozyme IV (bCA IV).

[15] = octanol/water
Description: Partition coefficient (logD) (chloroform/buffer)

Oryctolagus cuniculus [16] = species on record: Oryctolagus cuniculus; remark: listed apart in the source
Description: Compound was tested in vitro for corneal permeability of compound across the intact cornea obtained from rabbit

[17] = Compound was tested for solubility in pH buffer, at 25 degree C.(As hydrochloride salts); assay type: ADME

SMILES: NS(=O)(=O)c1ccc(NC(=O)c2cccc(C(=O)[O-])n2)c(F)c1.[Na+]
pDelta IOP (Oryctolagus cuniculus [1]): 4.8 mmHg

SMILES: CCN(C(=O)c1cccc(C(=O)O)n1)C1CC(C)S(=O)(=O)c2sc(S(N)(=O)=O)cc21.Cl (stereo not given)
Delta IOP (Oryctolagus cuniculus [2]): 12.1 mmHg | Delta IOP (Oryctolagus cuniculus [3]): 9.1 mmHg | Delta IOP (Oryctolagus cuniculus [4]): 3.5 mmHg | Delta IOP (Oryctolagus cuniculus [5]): 0 mmHg | Delta IOP (Oryctolagus cuniculus [6]): 6.5 mmHg | Delta IOP (Oryctolagus cuniculus [7]): 9.9 mmHg | Delta IOP (Oryctolagus cuniculus [8]): 6.8 mmHg

SMILES: NS(=O)(=O)c1nc2ccc(N3C(=O)c4cccnc4C3=O)cc2s1.O=S(=O)(O)C(F)(F)F
Delta IOP (Oryctolagus cuniculus [9]): 0 mmHg | Delta IOP (Oryctolagus cuniculus [10]): 4 mmHg | Delta IOP (Oryctolagus cuniculus [11]): 4.4 mmHg | Delta IOP (Oryctolagus cuniculus [12]): 2 mmHg

Ki (Carbonic anhydrase 2): 5 nM | Ki (Carbonic anhydrase 1): 400 nM | solubility [14]: 64 mM | Ki (Carbonic anhydrase 4): 17 nM | logD [15]: 1.736 | solubility [17]: 58 mM
SMILES: CCN(C(=O)c1cccc(C(=O)O)n1)C1CC(C)S(=O)(=O)c2sc(S(N)(=O)=O)cc21 (stereo not given)
Kin (Oryctolagus cuniculus [13]): 5900 h⁻¹ | Kin (Oryctolagus cuniculus [16]): 2800 h⁻¹
